Measurements reported in US9855230B2 (ViiV Healthcare UK (No. 5) Limited, priority 2014, dated 2018).
Counter-ions that a name gives are not always drawn. Like-named read-outs stand apart in the source and are kept apart here.

Columns and labels:
[1] = tested on: recombinant NL4-3 virus (nef section replaced with Renilla luciferase gene) in MT-2 cells; assay: whole plant or invertebrate; assay type: cell-based, HIV
Method in brief: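 Nef-deleted NL4-3 reporter virus carrying Renilla luciferase was used to infect MT-2 cells in the presence of serial compound dilutions. After 4-5 days of infection, antiviral activity was quantified from luciferase activity using a live-cell substrate.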

[2] = Compound cytotoxicity (CC50), XTT-based colorimetric assay; assay type: cell-based; conditions: human; uninfected MT2 cells, day 4, XTT assay
Method in brief: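 Run under the antiviral-assay protocol but without virus. Viability was read on day 4 and CC50 values were derived from the readout.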

[3] = NL43, luciferase activity in MT-2 cells infected 4-5 days with recombinant NL4-3 virus, read-out: Activity
[4] = NL43, luciferase activity in MT-2 cells infected 4-5 days with recombinant NL4-3 virus, read-out: EC50

Structure (SMILES)	EC50 [1, 3] [nM]	CC50 at 4 day [2] [nM]	EC50 [1, 4] [nM]	EC50 ([1]; NL43, read-out: Activity) [nM]	EC50 ([1]; NL43) [nM]
COC(=O)Nc1cccc(-n2ccnc2[C@H](Cc2ccccc2)NC(=O)NS(=O)(=O)c2ccccc2C)c1 [Example 76, (S)-methyl (3-(2-(2-phenyl-1-(3-(o-tolylsulfonyl)ureido)ethyl)-1H-imidazol-1-yl)phenyl)carbamate]	100 to 1000	> 100000	–	–	–
Cc1ccccc1S(=O)(=O)NC(=O)N[C@@H](Cc1ccccc1)c1nccn1-c1ccc2occc2c1 [Example 77, (S)-N-((1-(1-(benzofuran-5-yl)-1H-imidazol-2-yl)-2-phenylethyl)carbamoyl)-2-methylbenzenesulfonamide]	< 100	> 100000	–	–	–
O=C(N[C@@H](Cc1ccccc1)c1nccn1-c1ccc2occc2c1)NS(=O)(=O)c1ccccc1F [Example 78, (S)-N-((1-(1-(benzofuran-5-yl)-1H-imidazol-2-yl)-2-phenylethyl)carbamoyl)-2-fluorobenzenesulfonamide]	< 100	> 100000	20	–	–
CCCC(=O)Nc1cccc(-n2ccnc2[C@H](Cc2ccccc2)NC(=O)NS(=O)(=O)c2ccccc2C)c1 [Example 79, (S)-N-(3-(2-(2-phenyl-1-(3-(o-tolylsulfonyl)ureido)ethyl)-1H-imidazol-1-yl)phenyl)butyramide]	> 1000	> 100000	–	–	–
Cc1ccccc1S(=O)(=O)NC(=O)N[C@@H](Cc1ccccc1)c1nccn1-c1cnn(-c2ccccc2)c1 [Example 80, (S)-2-methyl-N-((2-phenyl-1-(1-(1-phenyl-1H-pyrazol-4-yl)-1H-imidazol-2-yl)ethyl)carbamoyl)benzenesulfonamide]	< 100	> 100000	–	–	–
Cc1ccccc1S(=O)(=O)NC(=O)N[C@@H](Cc1ccccc1)c1nccn1-c1cnn(Cc2ccccc2)c1 [Example 81, (S)-N-((1-(1-(1-benzyl-1H-pyrazol-4-yl)-1H-imidazol-2-yl)-2-phenylethyl)carbamoyl)-2-methylbenzenesulfonamide]	100 to 1000	> 100000	550	–	–
Cc1ccccc1S(=O)(=O)NC(=O)N[C@@H](Cc1cc(F)cc(F)c1)c1nccn1-c1ccc2c(c1)CCO2 [Example 82, (S)-N-((2-(3,5-difluorophenyl)-1-(1-(2,3-dihydrobenzofuran-5-yl)-1H-imidazol-2-yl)ethyl)carbamoyl)-2-methylbenzenesulfonamide]	100 to 1000	> 100000	–	–	–
COc1ccc(Cn2c(Br)cnc2[C@H](Cc2ccccc2)NC(=O)NS(=O)(=O)c2ccc(C)cc2)cc1 [Example 83, (S)-N-((1-(5-bromo-1-(4-methoxybenzyl)-1H-imidazol-2-yl)-2-phenylethyl)carbamoyl)-4-methylbenzenesulfonamide]	> 1000	> 33000	–	–	–
CCOc1ccc(-c2cccnc2[C@H](Cc2ccccc2)NC(=O)NS(=O)(=O)c2ccccc2C)cc1 [Example 88, (S)-N-((1-(3-(4-ethoxyphenyl)pyridin-2-yl)-2-phenylethyl)carbamoyl)-2-methylbenzenesulfonamide]	100 to 1000	> 100000	–	–	–
COC(=O)Nc1ccc(-c2cccnc2[C@H](Cc2cc(F)cc(F)c2)NC(=O)NS(=O)(=O)c2ccccc2C)cc1 [Example 89, (S)-methyl (4-(2-(2-(3,5-difluorophenyl)-1-(3-(o-tolylsulfonyl)ureido)ethyl)pyridin-3-yl)phenyl)carbamate]	–	> 100000	–	100 to 1000	–
Cc1ccccc1S(=O)(=O)NC(=O)N[C@@H](Cc1cc(F)cc(F)c1)c1ncccc1-c1ccc2ccncc2c1 [Example 90, (S)-N-((2-(3,5-difluorophenyl)-1-(3-(isoquinolin-7-yl)pyridin-2-yl)ethyl)carbamoyl)-2-methylbenzenesulfonamide]	100 to 1000	> 100000	230	–	–
COC(=O)Nc1ccc(-c2cccnc2[C@H](Cc2cc(F)cc(F)c2)NC(=O)NS(=O)(=O)c2ccccc2Cl)cc1 [Example 91, (S)-methyl (4-(2-(1-(3-((2-chlorophenyl)sulfonyl)ureido)-2-(3,5-difluorophenyl)ethyl)pyridin-3-yl)phenyl)carbamate, TFA]	100 to 1000	> 100000	–	–	–
O=C(N[C@@H](Cc1cc(F)cc(F)c1)c1ncccc1-c1ccc2ccncc2c1)NS(=O)(=O)c1ccccc1Cl [Example 92, (S)-2-chloro-N-((2-(3,5-difluorophenyl)-1-(3-(isoquinolin-7-yl)pyridin-2-yl)ethyl)carbamoyl)benzenesulfonamide, 2 TFA]	100 to 1000	> 100000	–	–	–
CCOc1ccc(-c2cccnc2C(Cc2ccccc2)NC(=O)NS(=O)(=O)c2ccccc2C)cc1 (stereo not shown) [Example 93, N-((1-(3-(4-ethoxyphenyl)pyridin-2-yl)-2-phenylethyl)carbamoyl)-2-methylbenzenesulfonamide]	100 to 1000	> 100000	420	–	–
CCOc1ccc(-c2cccnc2[C@H](Cc2cc(F)cc(F)c2)NC(=O)NS(=O)(=O)c2ccccc2C)cc1 [Example 94, (S)-N-((2-(3,5-difluorophenyl)-1-(3-(4-ethoxyphenyl)pyridin-2-yl)ethyl)carbamoyl)-2-methylbenzenesulfonamide, TFA]	100 to 1000	> 100000	–	–	–
NC(=O)c1cc(-c2cccnc2[C@H](Cc2cc(F)cc(F)c2)NC(=O)NS(=O)(=O)c2ccccc2Cl)ccc1F [Example 95, (S)-5-(2-(1-(3-((2-chlorophenyl)sulfonyl)ureido)-2-(3,5-difluorophenyl)ethyl)pyridin-3-yl)-2-fluorobenzamide, TFA]	100 to 1000	> 100000	–	–	–
COc1ccc(-c2cccnc2[C@H](Cc2cc(F)cc(F)c2)NC(=O)NS(=O)(=O)c2ccccc2C)cc1 [Example 96, (S)-N-((2-(3,5-difluorophenyl)-1-(3-(4-methoxyphenyl)pyridin-2-yl)ethyl)carbamoyl)-2-methylbenzenesulfonamide, TFA]	100 to 1000	> 33000	590	–	–
Cc1ccccc1S(=O)(=O)NC(=O)N[C@@H](Cc1cc(F)cc(F)c1)c1ncccc1-c1ccc(F)c(C(N)=O)c1 [Example 97, (S)-5-(2-(2-(3,5-difluorophenyl)-1-(3-(o-tolylsulfonyl)ureido)ethyl)pyridin-3-yl)-2-fluorobenzamide, TFA]	100 to 1000	> 100000	–	–	–
Cc1ccccc1S(=O)(=O)NC(=O)NC(Cc1ccccc1)c1ncccc1-c1ccc(F)c(C(N)=O)c1 (stereo not shown) [Example 98, 2-fluoro-5-(2-(2-phenyl-1-(3-(o-tolylsulfonyl)ureido)ethyl)pyridin-3-yl)benzamide, TFA]	100 to 1000	> 33000	–	–	–
O=C(N[C@H](Cc1cc(F)cc(F)c1)c1ncccc1-c1ccc2ccncc2c1)NS(=O)(=O)c1ccccc1Cl [Example 99, (R)-2-chloro-N-((2-(3,5-difluorophenyl)-1-(3-(isoquinolin-7-yl)pyridin-2-yl)ethyl)carbamoyl)benzenesulfonamide, 2 TFA]	–	> 33000	–	> 1000	1060
Cc1ccccc1S(=O)(=O)NC(=O)N[C@@H](Cc1cc(F)cc(F)c1)c1ncccc1-c1cncc(F)c1 [Example 100, (S)-N-((2-(3,5-difluorophenyl)-1-(5′-fluoro-[3,3′-bipyridin]-2-yl)ethyl)carbamoyl)-2-methylbenzenesulfonamide, 2 TFA]	> 1000	> 100000	–	–	–
CC(C)(C)OC(=O)n1cc(-c2cccnc2[C@@H](Cc2cc(F)cc(F)c2)NC(=O)NS(=O)(=O)c2ccccc2Cl)c2ccccc21 [Example 101, (R)-tert-butyl 3-(2-(1-(3-((2-chlorophenyl)sulfonyl)ureido)-2-(3,5-difluorophenyl)ethyl)pyridin-3-yl)-1H-indole-1-carboxylate, TFA]	> 1000	36000	–	–	–
O=C(N[C@H](Cc1cc(F)cc(F)c1)c1ncccc1-c1c[nH]c2ccccc12)NS(=O)(=O)c1ccccc1Cl [Example 102, (R)-N-((1-(3-(1H-indol-3-yl)pyridin-2-yl)-2-(3,5-difluorophenyl)ethyl)carbamoyl)-2-chlorobenzenesulfonamide, 2 TFA]	> 1000	> 33000	11500	–	–
Cc1ccccc1S(=O)(=O)NC(=O)N[C@H](Cc1cc(F)cc(F)c1)c1ncccc1-c1cncc(F)c1 [Example 103, (R)-N-((2-(3,5-difluorophenyl)-1-(5′-fluoro-[3,3′-bipyridin]-2-yl)ethyl)carbamoyl)-2-methylbenzenesulfonamide, 2 TFA]	> 1000	> 100000	–	–	–
Cc1cc(-c2cccnc2[C@@H](Cc2cc(F)cc(F)c2)NC(=O)NS(=O)(=O)c2ccccc2Cl)c(C)s1 [Example 104, (R)-2-chloro-N-((2-(3,5-difluorophenyl)-1-(3-(2,5-dimethylthiophen-3-yl)pyridin-2-yl)ethyl)carbamoyl)benzenesulfonamide, TFA]	> 1000	> 33000	–	–	–
CCOc1ccc(-c2cccnc2[C@@H](Cc2ccccc2)NC(=O)NS(=O)(=O)c2ccccc2C)cc1 [Example 105, (R)-N-((1-(3-(4-ethoxyphenyl)pyridin-2-yl)-2-phenylethyl)carbamoyl)-2-methylbenzenesulfonamide, TFA]	> 1000	75000	16700	–	–
O=C(N[C@H](Cc1cc(F)cc(F)c1)c1ncccc1-c1cccc(C(=O)NC2CC2)c1)NS(=O)(=O)c1ccccc1Cl [Example 106, (R)-3-(2-(1-(3-((2-chlorophenyl)sulfonyl)ureido)-2-(3,5-difluorophenyl)ethyl)pyridin-3-yl)-N-cyclopropylbenzamide, TFA]	> 1000	> 100000	–	–	–
Cc1ccccc1S(=O)(=O)NC(=O)N[C@H](Cc1cc(F)cc(F)c1)c1ncccc1Br [Example 107, (R)-N-((1-(3-bromopyridin-2-yl)-2-(3,5-difluorophenyl)ethyl)carbamoyl)-2-methylbenzenesulfonamide, TFA]	> 1000	> 33000	–	–	–
